Assay results as given in paper PMC6077758, “Gambogic Acid and Its Analogs Inhibit Gap Junctional Intercellular Communication” (Frontiers in Pharmacology, 2018).
Several values for one entry are separate records, joined by “and”; a condition that tells them apart may be missing. Identical values can stand only once. Values belong to the compound of their own block, whether it stands above or below them.

Columns and labels:
SLC26A4 = biological target: T1, SLC26A4 (Homo sapiens, UniProt O43511); assay: SLC26A4 inhibition (Supplementary Figure 4); format: cell-based
T1 construct: expressed in transfected cells
T1 sequence (O43511 1-780): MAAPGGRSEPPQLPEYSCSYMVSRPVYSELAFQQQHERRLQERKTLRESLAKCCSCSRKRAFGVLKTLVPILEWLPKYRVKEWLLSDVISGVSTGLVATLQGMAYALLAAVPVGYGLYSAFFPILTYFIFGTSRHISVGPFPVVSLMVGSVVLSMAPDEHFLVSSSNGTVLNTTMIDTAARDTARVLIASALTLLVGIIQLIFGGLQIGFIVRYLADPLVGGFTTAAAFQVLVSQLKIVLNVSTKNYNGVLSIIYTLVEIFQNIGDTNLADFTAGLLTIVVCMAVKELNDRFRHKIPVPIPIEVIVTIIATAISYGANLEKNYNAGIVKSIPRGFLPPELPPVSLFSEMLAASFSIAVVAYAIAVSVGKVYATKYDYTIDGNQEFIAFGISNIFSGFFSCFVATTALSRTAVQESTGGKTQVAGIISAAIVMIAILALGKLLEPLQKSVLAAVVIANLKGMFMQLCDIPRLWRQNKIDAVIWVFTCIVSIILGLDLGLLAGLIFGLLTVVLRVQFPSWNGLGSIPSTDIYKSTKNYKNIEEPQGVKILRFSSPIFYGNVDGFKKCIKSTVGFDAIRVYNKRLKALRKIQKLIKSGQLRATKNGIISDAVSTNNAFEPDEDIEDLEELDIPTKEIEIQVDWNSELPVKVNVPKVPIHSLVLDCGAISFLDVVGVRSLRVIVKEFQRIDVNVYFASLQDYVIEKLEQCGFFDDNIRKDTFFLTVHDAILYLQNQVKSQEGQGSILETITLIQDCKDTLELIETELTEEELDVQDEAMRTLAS

[1] = test system: GJIC in LN215 glioma cells; assay: I-YFP GJIC assay in LN215 cells; format: cell-based, human; details: for Inhibition of GJIC (in words): treated 10 min before assay, LN215 glioma cells
Protocol: The I-YFP GJIC assay was conducted as previously reported ([Lee et al., 2015], [2016]). The scheme of the assay is as follows: donor cells express SLC26A4 as an iodide transporter to allow iodide to the influx and donate iodide to acceptor cells through GJs; the acceptor cells express YFP^QL as an iodide sensor, for which the fluorescence is rapidly and sensitively quenched by iodide transferred from donor cells. A 2:1 mixture of the donor (LN215-I) and acceptor (LN215-YFP) cells were plated on 96-well plates at a density of 20,000 cells/well and grown for 24 h. After the medium was removed, the cells were treated with 100 μL of C-solution (10 mM HEPES, pH 7.4, 140 mM NaCl, 10 mM glucose, 5 mM KCl, 1 mM MgCl2, 1 mM CaCl2) containing vehicle or chemicals, as indicated. A POLARstar microplate reader (BMG Labtech, Ortenberg, Germany) equipped with an automated injector was utilized in the kinetic mode to read the YFP fluorescence of a well every 0.4 s for 10 s. An equal volume of I-solution, with the same composition as C-solution, except for the substitution of NaCl with NaI, was injected into the well 1 s after each recording was started. The % YFP quenching and % GJIC activity were calculated from a previously reported formula ([Lee et al., 2016]).
FIGURE 2 Inhibition of GJIC by GA, D-GA, and T-GA. I-YFP GJIC assay (see Materials and Methods) was conducted using LN215-I and LN215-YFP cells. The vehicle, GA (A), D-GA (B), or T-GA (C) was diluted in C-solution and applied to cells at the concentrations indicated above for 10 min before the GJIC assay. The mean % of GJIC activity ± SD of three independent experiments is presented as bar graphs.

Cx43 [2] = biological target: T2, Cx43 (Homo sapiens, UniProt P17302); assay: I-YFP GJIC assay, LN215-Cx43 cells; format: cell-based; details: 10 min treatment, best fit value ± standard error; read-out: IC50 for inhibition of Cx43-GJIC
T2 construct: expressed in transfected cells; host or cells: GJA1-null LN215 human glioma cells, lentiviral transduction (pLVX-CIBla-Cx43)
Protocol: (§1) GJA1-null LN215 cells were plated on a 24-well plate at 30% confluency, cultivated for 24 h, and transduced with 200 μL of conditioned medium containing lentivirus mixed with an equal volume of fresh growth medium for 15 h. The growth medium was refreshed followed by incubation for a further 72 h before selection with 2 μg/mL puromycin for one week.
(§2) The I-YFP GJIC assay was conducted as previously reported ([Lee et al., 2015], [2016]). The scheme of the assay is as follows: donor cells express SLC26A4 as an iodide transporter to allow iodide to the influx and donate iodide to acceptor cells through GJs; the acceptor cells express YFP^QL as an iodide sensor, for which the fluorescence is rapidly and sensitively quenched by iodide transferred from donor cells. […] A POLARstar microplate reader (BMG Labtech, Ortenberg, Germany) equipped with an automated injector was utilized in the kinetic mode to read the YFP fluorescence of a well every 0.4 s for 10 s. […] The % YFP quenching and % GJIC activity were calculated from a previously reported formula ([Lee et al., 2016]). […]
(§3) FIGURE 10 IC50 values of D-GA and CBX inhibition of GJs composed of Cx43, Cx40, or Cx30. […] The percentage of GJIC inhibition was calculated and plotted against the log [compound] […] The IC50 values were calculated using GraphPad Prism 5.

Cx30 = biological target: T3, Cx30 (Homo sapiens, UniProt O95452); assay: I-YFP GJIC assay, LN215-Cx30 cells; format: cell-based; details: 10 min treatment, best fit value ± standard error; read-out: IC50 for inhibition of Cx30-GJIC
T3 construct: expressed in transfected cells; host or cells: GJA1-null LN215 human glioma cells, lentiviral transduction (pLVX-CIBla-Cx30)
Protocol: as §1, §2, §3

Cx40 = biological target: T4, Cx40 (Homo sapiens, UniProt P36382); assay: I-YFP GJIC assay, LN215-Cx40 cells; format: cell-based; details: 10 min treatment, best fit value ± standard error; read-out: IC50 for inhibition of Cx40-GJIC
T4 construct: expressed in transfected cells; host or cells: GJA1-null LN215 human glioma cells, lentiviral transduction (pLVX-EIBla-Cx40)
Protocol: as §1, §2, §3

Cx43 [3] = format: cell-based, human; details: LN215-Cx43 cells
Protocol: To assess the cellular level and S368 phosphorylation status of Cx43 on cell surfaces and in whole lysates, LN215-Cx43 cells on 100 mm culture plates were biotinylated using EZ-Link^TM Sulfo-NHS-SS-Biotin (ThermoFisher Scientific, Cat. No. 21331) according to the manufacturer’s instructions followed by lysis with PBS containing 1% Triton X-100, 1x protease inhibitor cocktail (Roche), and 1x phosphatase inhibitor cocktail (Pierce). Protein concentration was determined using a BCA assay. To collect surface proteins, 500 μg of protein was bound to 20 μL of NeutrAvidin^TM Agarose (Pierce) followed by elution with 2x Laemmli sample buffer. The surface samples and 20 μg of whole lysates were analyzed using immunoblotting as previously described ([Lee et al., 2016]). To confirm the knockout of GJA1, whole lysates were prepared without surface biotinylation. […] The protein band densities were measured using ImageJ software.
FIGURE 5 Effect of D-GA treatment on surface expression and S368 phosphorylation of Cx43. […] The images before cropping are also presented in Supplementary Figures 1A–E. The relative phospho-S368 Cx43 band intensity, divided by the total Cx43 band intensity, is reflective of Cx43 S368-phosphorylation and was calculated and presented as bar graphs (B). […]

LN215 cells = assay: Measurement of DCFH oxidation (ROS); format: cell-based, human; details: D-GA 20 μM 10 min, H2O2 30 min
Protocol: looseness1 LN215 cells were grown to confluency on 96-well plates, washed three times with C-solution, and treated with 100 μL C-solution containing 10 μM 2′–7′-dichlorodihydrofluorescein diacetate (DCFH-DA, Sigma-Aldrich) for 1 h; subsequently, the DCF fluorescence was measured. Chemical treatment was conducted during the DCFH-DA loading period. The DCF fluorescence value, which reflects cellular oxidative stress, was measured using a POLARstar microplate reader using excitation and emission wavelengths of 495 and 520, respectively.
FIGURE 7 No ROS generation results from D-GA treatment in LN215 cells. LN215 cells were plated in 96-well plates and grown to full confluency. After washing with C-solution, the cells were loaded with 10 μM DCFH-DA diluted in C-solution for 1 h before fluorometry. H2O2 or D-GA was added after 30 min or 10 min before the measurement, respectively. The data are the mean ± SD (n = 3). ^∗p < 0.05 (Student’s t-test).

T3 sequence (O95452 whole entry): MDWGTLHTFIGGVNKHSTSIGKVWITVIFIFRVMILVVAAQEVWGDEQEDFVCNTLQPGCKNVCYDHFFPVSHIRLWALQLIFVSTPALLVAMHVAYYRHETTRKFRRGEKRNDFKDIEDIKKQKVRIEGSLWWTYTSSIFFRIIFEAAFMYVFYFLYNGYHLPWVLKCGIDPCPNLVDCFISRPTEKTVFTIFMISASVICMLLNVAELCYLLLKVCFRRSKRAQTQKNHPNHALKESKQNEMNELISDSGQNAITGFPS
T4 sequence (P36382 whole entry): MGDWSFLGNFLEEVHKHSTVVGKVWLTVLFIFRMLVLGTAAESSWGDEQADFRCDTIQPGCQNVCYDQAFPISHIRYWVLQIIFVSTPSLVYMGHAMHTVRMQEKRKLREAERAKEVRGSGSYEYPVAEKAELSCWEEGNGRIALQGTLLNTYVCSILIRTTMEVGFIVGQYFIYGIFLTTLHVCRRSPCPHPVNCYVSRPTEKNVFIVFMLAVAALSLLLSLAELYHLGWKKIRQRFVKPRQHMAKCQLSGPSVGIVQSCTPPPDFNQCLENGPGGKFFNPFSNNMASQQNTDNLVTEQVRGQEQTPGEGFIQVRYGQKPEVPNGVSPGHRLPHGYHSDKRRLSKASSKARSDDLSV
T2 sequence (P17302 2-382 limits assumed): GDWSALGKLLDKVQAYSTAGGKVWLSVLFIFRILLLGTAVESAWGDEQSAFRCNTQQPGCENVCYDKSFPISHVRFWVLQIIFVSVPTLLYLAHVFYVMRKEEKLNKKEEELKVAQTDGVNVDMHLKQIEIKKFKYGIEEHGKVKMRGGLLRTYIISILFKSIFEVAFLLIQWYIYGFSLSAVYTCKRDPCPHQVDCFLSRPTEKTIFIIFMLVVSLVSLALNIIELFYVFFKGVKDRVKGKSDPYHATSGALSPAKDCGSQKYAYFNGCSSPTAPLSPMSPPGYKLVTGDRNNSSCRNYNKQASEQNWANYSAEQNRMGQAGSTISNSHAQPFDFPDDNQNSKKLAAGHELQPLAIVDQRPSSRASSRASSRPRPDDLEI

Structure (SMILES): CC(C)=CCC[C@]1(C)C=Cc2c(O)c3c(c(CC=C(C)C)c2O1)O[C@]12C(=C[C@@H]4C[C@H]1C(C)(C)O[C@@]2(C/C=C(/C)C(=O)O)C4=O)C3=O [GA, Gambogic acid]
Inhibition of SLC26A4 (SLC26A4): did not inhibit SLC26A4
Inhibition of GJIC (in words) [1]: inhibited by these compounds in a dose-dependent manner

IC50 (Cx43 [2]): 5.6 ± 1.1 µM
IC50 (Cx30): 748.2 ± 1.3 µM
IC50 (Cx40): 105 µM
Structure (SMILES): CC1(C)[C@@H](OC(=O)CCC(=O)O)CC[C@]2(C)[C@H]3C(=O)C=C4[C@@H]5C[C@@](C)(C(=O)O)CC[C@]5(C)CC[C@@]4(C)[C@]3(C)CC[C@@H]12 [CBX, carbenoxolone, reference compound]

Structure (SMILES): CC(=O)OCOC(=O)CN(CC(=O)OCOC(C)=O)c1ccccc1OCCOc1ccccc1N(CC(=O)OCOC(C)=O)CC(=O)OCOC(C)=O [BAPTA-AM, reference compound]
Effect of pre-treatment on GJIC activity ([1]; 5 μM BAPTA-AM 30 min, control or 20 μM D-GA-treated LN215 cells): did not change the GJIC activity

Structure (SMILES): CC(C)=CCCC1(C)C=Cc2c(O)c3c(c(CC=C(C)C)c2O1)OC12C(=CC4CC1C(C)(C)OC2(C/C=C(/C)C(=O)O)C4O)C3=O [D-GA, dihydrogambogic acid]
% GJIC activity ([1]; 20 μM for 10 min, LN215-I and LN215-YFP cells, mean ± SD): 18.1% ± 15.7% and 17.6% ± 7.3%
% GJIC activity after washing ([1]; 20 μM for 10 min, washed, further 20 min incubation in absence of compound): 91.4% ± 2.5%
Inhibition of GJIC (in words) [1]: inhibited by these compounds in a dose-dependent manner
S368 phosphorylation of surface Cx43 vs vehicle (Cx43 [3]; 10 min, 20 μM D-GA or 100 ng/mL PMA + 50 ng/mL EGF): did not increase S368 phosphorylation
Cx43 level on cell surfaces (Cx43 [3]; 20 μM D-GA 10 min or 1 μg/mL BFA + 10 μg/mL CHX 6 h): increased threefold
IC50 (Cx43 [2]): 13.1 ± 1.1 µM
DCF fluorescence (cellular ROS production) (LN215 cells): did not increase DCF fluorescence
IC50 (Cx30): 81.1 ± 1.1 µM
IC50 (Cx40): 5.1 µM

Structure (SMILES): CC(C)=CCCC1(C)C=Cc2c(O)c3c(c(CC=C(C)C)c2O1)OC12C(CC4CC1C(C)(C)OC2(CC=C(C)C(=O)O)C4O)C3=O (stereo not drawn) [T-GA, tetrahydrogambogic acid]
Inhibition of GJIC (in words) [1]: inhibited by these compounds in a dose-dependent manner

Structure (SMILES): OO [H2O2, reference compound]
DCF fluorescence (cellular ROS production) (LN215 cells): dose-dependent increase

Structure (SMILES): Cc1[nH]nc(-c2cc(S(=O)(=O)NC3CCCc4ccccc43)c(C)s2)c1C (stereo not drawn) [PDSinh-C01, reference compound]
Inhibition of SLC26A4 (SLC26A4): potently inhibited
